Reference: patent EP0494283B1, “1,4-BENZODIOXANE DERIVATIVES, PROCESS FOR THE PREPARATION THEREOF AND PHARMACEUTICAL COMPOSITIONS THEREFROM” (LABORATORIOS MENARINI S.A., priority 1990, dated 1992)
Where a name gives a salt, the structure may show the parent alone. Read-outs that look alike come from different tables or passages of the source.

Legend:
Format in all cases: cell-based
[1] = tested on: PAF-induced platelet aggregation; test: Inhibition of PAF-induced platelet aggregation (aggregometry, washed platelets); conditions: Oryctolagus cuniculus, rabbit washed platelets, on the maximum aggregation values of the PAF standard curve, read-out: Paf-antagonism IC₅₀
Description: (§1) Platelets are prepared starting from blood samples obtained by means of a carotid cannula from male albino New Zealand rabbits (2-2.5 kg), subjected to anticoagulant treatment with sodium citrate dihydrate (3.2%) 1:10. Blood is centrifuged (150xg, 10 min, 22°C) to separate the platelet-rich plasma fraction (PRP) from erythrocytes. Platelets are separated from plasmatic components by serial washings and centrifugations (Blood, 1986, 62:337), thereafter they are suspended in a physiological buffer at a concentration of 5 x 10⁵/ml. A 400 µl volume of the above mentioned suspension is placed into the cuvette of a multicanal aggregometer (Aggrecoder HU) where it is kept at constant temperature and stirring. After stabilization, platelets are added with 50 µl of physiological buffer containing 100 µM acetylsalicylic acid and apirase 5 mg/ml, in order to block any non PAF-related platelet activation metabolic pathways. Subsequently the platelet suspensions are added with 50 µl of the different solutions to be tested. Changes in light transmission, due to platelet aggregation in the suspension, are recorded and expressed as percent platelet aggregation, according to the procedure by Born and Cross (J. Physiol., 1962, 162:67). Standard curve is performed with PAF within a concentration range of 0.1-1 nM.
Capability to inhibit PAF-induced platelet aggregation is evaluated by means of the aggregometry technique in suspensions of rabbit washed platelets, obtained by means of the same procedure as described in Example 32. For this purpose, the inhibition potency of the products under test, expressed as the corresponding IC₅₀, is evaluated on the maximum aggregation values obtained in PAF standard curve.

[2] = tested on: HL-60 tumor cells; test: Cytotoxic activity, Trypan Blue exclusion; conditions: Homo sapiens, read-out: Cytotoxicity EC₅₀
Description: Suspensions of HL-60 Line cells, obtained starting from human promyelocyte leukemia, are incubated in 6-well culture plates for 24 hours at 37°C, at a concentration of 1 x 10⁶ cells/ml, in the presence of the test products, which have previously been dissolved in the culture medium. Cytotoxicity is measured by means of the Trypan Blue exclusion technique (Practical Immunology, pp 29-32, Oxford, England : Blackwell Scientific Publications, 1976).

[3] = tested on: rabbit washed platelets; test: Platelet aggregating effect (aggregometry, washed platelets); conditions: Oryctolagus cuniculus, suspension of rabbit washed platelets, acetylsalicylic acid and apirase added, read-out: Aggregation EC₅₀
Description: as §1

[4] = HL-60 cells, 1 x 10⁶ cells/ml, 24 hours at 37°C

Row | Compound | IC50 [1] [µM] | EC50 ([2]; HL-60, 24 h) [µM] | EC50 [2, 4] [µM] | further results
1 | C[N+](C)(C)CCCCCCCCCCOCC1COc2ccccc2O1 (centres unmarked) [Example 4, N-[10-[[(1,4-Benzodioxan-2-yl)methyl]oxy]decyl]-N,N,N-trimethylammonium bromide] | 130 | 70 | – | –
2 | C[N+](C)(C)CCCCCCCCCCCCCCCCOCC1COc2ccccc2O1 (centres unmarked) [Example 5, N-[16[[(1,4-Benzodioxan-2-yl)methyl]oxy]hexadecyl]-N,N,N-trimethylammonium bromide] | 20 | 18 | – | –
3 | C[N+](C)(C)CCCCCCOCCCCCCCCCCOCC1COc2ccccc2O1 (centres unmarked) [Example 6, N-[6-[[(10-[[1,4-Benzodioxan-2-yl)methyl]oxy]decyl]oxy]hexyl]-N,N,N-trimethylammonium bromide] | – | – | 11 | –
4 | C[N+](C)(C)CCCCCCCCCCOCCCCCCCCCCOCC1COc2ccccc2O1 (centres unmarked) [Example 7, N-[10-[[10-[[(1,4-Benzodioxan-2-yl)methyl]oxy]decyl]oxy]decyl]-N,N,N-trimethylammonium bromide] | – | – | 15 | –
5 | CC[N+](CC)(CC)CCCCOCC1COc2ccccc2O1 (centres unmarked) [Example 8, N-[4-[[(1,4-Benzodioxan-2-yl)methyl]oxy]butyl]-N,N,N-triethylammonium bromide] | – | – | – | EC50 [3]: > 190 µM
6 | CC[N+](CC)(CC)CCCCCCCCCCOCC1COc2ccccc2O1 (centres unmarked) [Example 10, N-[10-[[(1,4-Benzodioxan-2-yl)methyl]oxy]decyl]-N,N,N-triethylammonium bromide] | 90 | 30 | – | –
7 | c1ccc2c(c1)OCC(COCCCCCCCCCCN1CCCCC1)O2 (centres unmarked) [Example 15, N-[10-[[(1,4-Benzodioxan-2-yl)methyl]oxy]decyl]piperidine hydrochloride] | – | – | 20 | –
8 | c1ccc2c(c1)OCC(COCCCCN1CCOCC1)O2 (centres unmarked) [Example 16, N-[4-[[(1,4-Benzodioxan-2-yl)methyl]oxy]butyl]morpholine hydrochloride] | – | – | 18 | –
9 | c1ccc2c(c1)OCC(COCCCCCCCCCCN1CCOCC1)O2 (centres unmarked) [Example 19, N-[10-[[(1,4-Benzodioxan-2-yl)methyl]oxy]decyl]morpholine hydrochloride] | – | – | 30 | –
10 | C[N+]1(CCCCCOCC2COc3ccccc3O2)CCCCC1 (centres unmarked) [Example 21, N-[5-[[(1,4-Benzodioxan-2-yl)methyl]oxy]pentyl]-N-methylpiperidinium iodide] | – | – | – | EC50 [3]: > 190 µM
11 | C[N+]1(CCCCCCCCCCOCC2COc3ccccc3O2)CCCCC1 (centres unmarked) [Example 23, N-[10-[[(1,4-Benzodioxan-2-yl)methyl]oxy]decyl]-N-methylpiperidinium bromide] | 75 | 20 | – | –
12 | C[N+]1(CCCCCCCCCCCCCCCCOCC2COc3ccccc3O2)CCCCC1 (centres unmarked) [Example 24, N-[16-[[(1,4-Benzodioxan-2-yl)methyl]oxy]hexadecyl]-N-methylpiperidinium bromide] | – | – | 6 | –
13 | C[N+]1(CCCCCCOCCCCCCCCCCOCC2COc3ccccc3O2)CCCCC1 (centres unmarked) [Example 25, N-[6-[[(10-[[1,4-Benzodioxan-2-yl)methyl]oxy]decyl]oxy]hexyl]-N-methylpiperidinium bromide] | – | – | 3 | –
14 | C[N+]1(CCCCCCCCCCOCCCCCCCCCCOCC2COc3ccccc3O2)CCCCC1 (centres unmarked) [Example 26, N-[10-[[10-[[(1,4-Benzodioxan-2-yl)methyl]oxy]decyl]oxy]decyl]-N-methylpiperidinium bromide] | – | – | 28 | –
15 | C[N+]1(CCCCCCCCCCOCC2COc3ccccc3O2)CCOCC1 (centres unmarked) [Example 30, N-[10-[[(1,4-Benzodioxan-2-yl)methyl]oxy]decyl]-N-methylmorpholinium iodide] | 190 | 30 | – | –
